{"source": "paper PMC4074510", "about": "(Neuron, 2014)", "key": {"PIP5K1C": {"biological_target": "PIP5K1C (Homo sapiens, UniProt O60331)", "sequence (O60331 whole entry)": "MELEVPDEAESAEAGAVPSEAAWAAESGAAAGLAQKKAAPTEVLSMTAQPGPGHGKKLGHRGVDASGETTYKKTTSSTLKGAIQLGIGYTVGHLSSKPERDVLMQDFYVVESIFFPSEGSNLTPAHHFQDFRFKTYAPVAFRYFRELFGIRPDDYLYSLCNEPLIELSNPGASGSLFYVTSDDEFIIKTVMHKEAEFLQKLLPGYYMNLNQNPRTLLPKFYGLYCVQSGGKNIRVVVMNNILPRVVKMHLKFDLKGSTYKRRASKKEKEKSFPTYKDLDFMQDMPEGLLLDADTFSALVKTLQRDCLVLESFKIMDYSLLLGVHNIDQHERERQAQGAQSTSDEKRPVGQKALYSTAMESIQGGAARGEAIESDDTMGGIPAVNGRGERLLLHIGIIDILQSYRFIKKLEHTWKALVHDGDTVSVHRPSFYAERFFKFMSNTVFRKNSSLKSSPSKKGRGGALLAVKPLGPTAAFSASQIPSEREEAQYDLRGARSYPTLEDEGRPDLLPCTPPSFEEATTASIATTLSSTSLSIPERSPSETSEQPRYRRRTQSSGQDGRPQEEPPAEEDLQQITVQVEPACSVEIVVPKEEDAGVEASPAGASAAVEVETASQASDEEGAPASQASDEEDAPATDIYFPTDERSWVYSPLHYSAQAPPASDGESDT", "experiment": "microfluidic mobility shift assay with fluorescein-PI", "type": "biochemical"}, "SGK1": {"biological_target": "T1, SGK1 (Homo sapiens, UniProt O00141)", "T1 sequence (O00141 1-431)": "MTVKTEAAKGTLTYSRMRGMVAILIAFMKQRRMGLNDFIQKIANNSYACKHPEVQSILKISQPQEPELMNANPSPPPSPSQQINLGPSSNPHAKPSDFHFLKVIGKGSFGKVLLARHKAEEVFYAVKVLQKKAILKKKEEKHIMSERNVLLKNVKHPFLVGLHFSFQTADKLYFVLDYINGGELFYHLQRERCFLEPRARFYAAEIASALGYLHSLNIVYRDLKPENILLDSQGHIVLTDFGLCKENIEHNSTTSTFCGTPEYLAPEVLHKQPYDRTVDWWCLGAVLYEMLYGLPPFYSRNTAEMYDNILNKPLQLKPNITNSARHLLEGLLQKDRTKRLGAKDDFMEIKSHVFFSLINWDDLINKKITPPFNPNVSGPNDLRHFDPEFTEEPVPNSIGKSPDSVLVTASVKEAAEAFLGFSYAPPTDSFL", "experiment": "KINOMEscan competitive binding at […]", "conditions": "read-out: % binding remaining at 10 μM"}, "[1]": {"biological_target": "T2, PIP4K2C (Phosphatidylinositol-5-phosphate 4-kinase, type II, gamma) (Homo sapiens, UniProt Q8TBX8)", "T2 sequence (Q8TBX8 2-421)": "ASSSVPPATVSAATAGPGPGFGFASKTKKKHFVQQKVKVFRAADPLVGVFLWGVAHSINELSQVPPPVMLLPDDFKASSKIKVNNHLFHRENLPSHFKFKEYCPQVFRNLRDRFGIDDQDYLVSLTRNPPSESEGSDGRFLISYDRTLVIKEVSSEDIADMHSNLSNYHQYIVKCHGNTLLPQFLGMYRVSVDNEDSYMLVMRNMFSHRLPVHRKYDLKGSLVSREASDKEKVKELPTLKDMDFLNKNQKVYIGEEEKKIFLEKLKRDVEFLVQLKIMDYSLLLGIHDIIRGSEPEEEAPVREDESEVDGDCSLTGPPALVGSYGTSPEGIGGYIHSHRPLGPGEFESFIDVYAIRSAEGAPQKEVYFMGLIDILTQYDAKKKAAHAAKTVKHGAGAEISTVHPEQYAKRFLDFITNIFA", "experiment": "KINOMEscan competitive binding assay, dose-response"}}}
{"smiles": "NC(=O)c1nc(Nc2ccccc2)sc1NC(=O)C1CCCCC1", "note": "[UNC3230, 5-(cyclohexanecarboxamido)-2-(phenylamino)thiazole-4-carboxamide]", "values": [{"measurement": "IC50", "setting": "PIP5K1C", "result": "~41", "unit": "nM"}, {"measurement": "remaining binding at 10 µM", "setting": "SGK1", "result": 8, "unit": "%"}, {"measurement": "Kd", "setting": "[1]", "result": "< 200", "unit": "nM"}]}
